Like-named read-outs stand apart in the source and are kept apart here.
How the values were obtained:
[1] = molecular target: T1, human BACE2 (1-460):Fc (Homo sapiens, UniProt Q9Y5Z0); test: BACE2 MBP-C125Swe assay; type: biochemical
T1 construct: 10 μL of 200 picomolar human BACE2 (1-460):Fc in the same reaction buffer; made in house; host or cells: HEK293 (transient transfection, purified from conditioned media by Protein A)
T1 sequence (Q9Y5Z0 21-460): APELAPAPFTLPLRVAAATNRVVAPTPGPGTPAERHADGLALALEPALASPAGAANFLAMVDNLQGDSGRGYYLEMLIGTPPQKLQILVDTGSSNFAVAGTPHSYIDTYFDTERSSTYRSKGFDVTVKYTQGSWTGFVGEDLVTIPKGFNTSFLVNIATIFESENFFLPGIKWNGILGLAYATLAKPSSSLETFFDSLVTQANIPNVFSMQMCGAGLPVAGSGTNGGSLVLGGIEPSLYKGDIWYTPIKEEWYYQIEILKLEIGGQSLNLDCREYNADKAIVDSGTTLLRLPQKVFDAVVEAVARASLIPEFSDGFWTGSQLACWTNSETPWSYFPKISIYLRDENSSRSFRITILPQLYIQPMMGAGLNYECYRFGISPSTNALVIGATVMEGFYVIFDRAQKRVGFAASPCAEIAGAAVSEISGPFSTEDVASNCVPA
Procedure: (§1) To assess selectivity of BACE1 over BACE2, the test compound is evaluated in FRET and immunoassay detection base enzymatic assays using specific substrates for BACE1 and BACE2 as described below. For in vitro enzymatic and cellular assays, the test compound is prepared in DMSO to make up a 10 mM stock solution. The stock solution is serially diluted in DMSO to obtain a ten-point dilution curve with final compound concentrations ranging from 10 μM to 0.05 nM in a 96-well round-bottom plate before conducting the in vitro enzymatic and whole cell assays.
Human BACE1 (accession number: AF190725) and human BACE2 (accession number: AF 204944) are cloned from total brain cDNA by RT-PCR. The nucleotide sequences corresponding to amino acid sequences #1 to 460 are inserted into the cDNA encoding human IgG1 (Fc) polypeptide (Vassar et al., Science, 286, 735-742 (1999)). This fusion protein of BACE1(1-460) or BACE2(1-460) and human Fc, named huBACE1:Fc and huBACE2:Fc respectively, are constructed in the pJB02 vector. […]
Conditioned media of HEK293 cells transiently transfected with huBACE1:Fc or huBACE2:Fc cDNA are collected. […] The purity of final product is assessed by electrophoresis in 4-20% Tris-Glycine SDS-PAGE. […]
10 point serial dilutions of test compounds are prepared in the appropriate range. […] The amount of product is measured by ELISA using MBP-C26swe standard. […]

[2] = molecular target: T2, BACE1 (Homo sapiens, UniProt P56817); test: SH-SY5YAPP695Wt whole cell assay (Abeta ELISA); type: cell-based; details: 24 hours incubation
T2 construct: endogenous in cells; host or cells: SH-SY5Y (ATCC CRL2266) stably expressing human APP695Wt
Procedure: as §1
The routine whole cell assay for the measurement of inhibition of BACE1 activity utilizes the human neuroblastoma cell line SH-SYSY (ATCC Accession No. CRL2266) stably expressing a human APP695Wt cDNA. Cells are routinely used up to passage number 6 and then discarded.
SH-SY5YAPP695Wt cells are plated in 96 well tissue culture plates at 5.0×10^4 cells/well in 200 μL culture media (50% MEM/EBSS and Ham's F12, 1× each sodium pyruvate, non-essential amino acids and NaHCO3 containing 10% FBS). […]
At the end of the incubation, conditioned media are analyzed for evidence of beta-secretase activity by analysis of Abeta peptides 1-40 and 1-42 by specific sandwich ELISAs. […]

[3] = molecular target: T3, beta-secretase (Mus musculus, UniProt P56818); test: In vivo inhibition of beta-secretase, brain Abeta 1-x in PDAPP mice; details: young female PDAPP mice, three hours after dosing, vs vehicle, p<0.01
T3 construct: from tissue; host or cells: brain (hippocampus, cortex) of young female PDAPP mice, in vivo dosing
Excerpt: Several animal models, including mouse, guinea pig, dog, and monkey, may be used to screen for inhibition of beta-secretase activity in vivo following compound treatment. Animals used in this invention can be wild type, transgenic, or gene knockout animals. For example, the PDAPP mouse model, prepared as described in Games et al., Nature 373, 523-527 (1995), and other non-transgenic or gene knockout animals are useful to analyze in vivo inhibition of Abeta and sAPPbeta production in the presence of inhibitory compounds. Generally, 2 month old PDAPP mice, gene knockout mice or non-transgenic animals are administered compound formulated in vehicles, such as corn oil, beta-cyclodextran, phosphate buffers, PHARMASOLVE®, or other suitable vehicles via oral, subcutaneous, intra-venous, feeding, or other route of administration. 1 to 24 hours following the administration of compound, animals are sacrificed, and brains are removed for analysis of Abeta 1-x. “Abeta 1-x” as used herein refers to the sum of Abeta species that begin with residue 1 and end with a C-terminus greater than residue 28. This detects the majority of Abeta species and is often called “total Abeta”. Total Abeta peptides (Abeta 1-x) levels are measured by a sandwich ELISA, using monoclonal 266 as a capture antibody and biotinylated 3D6 as reporting antibody. (See May, et al., Journal of Neuroscience, 31, 16507-16516 (2011)).
For acute studies, compound or appropriate vehicle is administered and animals are sacrificed at about 3 hours after dosing. Brain tissue, is obtained from selected animals and analyzed for the presence of Abeta 1-x. After chronic dosing brain tissues of older APP transgenic animals may also be analyzed for the amount of beta-amyloid plaques following compound treatment.
For example, a 0.1, 0.3, and 1 mg/kg oral dose of Example 1, to young female PDAPP mice reduced Abeta 1-x peptide levels in brain hippocampus by 32%, 40%, and 55% (all values p<0.01), respectively.

T3 sequence (P56818 46-501): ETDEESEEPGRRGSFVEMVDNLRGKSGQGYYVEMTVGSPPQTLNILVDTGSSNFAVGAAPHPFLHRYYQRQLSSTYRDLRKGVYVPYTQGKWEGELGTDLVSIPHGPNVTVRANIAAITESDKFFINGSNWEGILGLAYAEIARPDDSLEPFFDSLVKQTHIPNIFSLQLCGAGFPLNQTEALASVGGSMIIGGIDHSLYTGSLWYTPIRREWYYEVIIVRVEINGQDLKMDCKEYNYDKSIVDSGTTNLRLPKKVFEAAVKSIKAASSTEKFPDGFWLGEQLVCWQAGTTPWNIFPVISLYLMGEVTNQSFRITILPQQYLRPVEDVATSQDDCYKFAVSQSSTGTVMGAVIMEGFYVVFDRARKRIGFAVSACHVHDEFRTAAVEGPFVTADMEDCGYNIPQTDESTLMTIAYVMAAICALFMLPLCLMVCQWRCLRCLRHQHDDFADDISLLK
T2 sequence (P56817 46-501): as the sequence (P56818 46-501) above, with S6P, I162V, I165L, T180S, A182V, V340I, A393L, H443Q counted along it

CC(F)(F)[C@H]1OC[C@]2(c3cc(NC(=O)c4ccc(C#N)cn4)ccc3F)N=C(N)SC[C@H]12 [Example 1, N-[3-[(4aS,5S,7aS)-2-Amino-5-(1,1-difluoroethyl)-4,4a,5,7-tetrahydrofuro[3,4-d][1,3]thiazin-7a-yl]-4-fluoro-phenyl]-5-cyano-pyridine-2-carboxamide]
selectivity for BACE1 over BACE2 (BACE2 IC50 / BACE1 IC50) [1]: approximately 35 fold
IC50 ([2]; ± 0.048, n=4, read-out: IC50 for SH-SY5YAPP695Wt A-beta (1-40) ELISA): 157 pM
IC50 ([2]; ± 0.050, n=4, read-out: IC50 for SH-SY5YAPP695Wt A-beta (1-42) ELISA): 177 pM
reduction of Abeta 1-x levels in brain cortical tissue ([3]; 0.1 mg/kg oral): 38%
reduction of Abeta 1-x peptide levels in brain hippocampus ([3]; 0.1 mg/kg oral): 32%
reduction of Abeta 1-x levels in brain cortical tissue ([3]; 0.3 mg/kg oral): 50%
reduction of Abeta 1-x peptide levels in brain hippocampus ([3]; 0.3 mg/kg oral): 40%
reduction of Abeta 1-x levels in brain cortical tissue ([3]; 1 mg/kg oral): 67%
reduction of Abeta 1-x peptide levels in brain hippocampus ([3]; 1 mg/kg oral): 55%
